# Assay results as given in PubChem BioAssay (NCI).
#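 All cell lines were grown in 96-well plates and treated with compound for 48 hours. At the GI50, growth is halved. TGI denotes the concentration required for complete inhibition of growth.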
# Key:
# Assay in all cases: inhibition of tumour cell growth, NCI panel, 48 h
# CAKI-1 renal = test system: CAKI-1 renal
# UACC-257 melanoma = test system: UACC-257 melanoma
# PC-3 prostate = test system: PC-3 prostate
# COLO 205 colon = test system: COLO 205 colon
# OVCAR-4 ovarian = test system: OVCAR-4 ovarian
# SN12C renal = test system: SN12C renal
# IGROV1 ovarian = test system: IGROV1 ovarian
# SK-MEL-5 melanoma = test system: SK-MEL-5 melanoma
# MALME-3M melanoma = test system: MALME-3M melanoma
# OVCAR-3 ovarian = test system: OVCAR-3 ovarian
# OVCAR-8 ovarian = test system: OVCAR-8 ovarian
# NCI-H460 lung = test system: NCI-H460 lung
# BT-549 breast = test system: BT-549 breast
# NCI-H522 lung = test system: NCI-H522 lung
# UACC-62 melanoma = test system: UACC-62 melanoma
# TK-10 renal = test system: TK-10 renal
# KM12 colon = test system: KM12 colon
# SF-295 CNS = test system: SF-295 CNS
# RPMI-8226 leukemia = test system: RPMI-8226 leukemia
# SK-MEL-28 melanoma = test system: SK-MEL-28 melanoma
# ACHN renal = test system: ACHN renal
# MOLT-4 leukemia = test system: MOLT-4 leukemia
# HL-60(TB) leukemia = test system: HL-60(TB) leukemia
# T-47D breast = test system: T-47D breast
# K-562 leukemia = test system: K-562 leukemia
# HCT-15 colon = test system: HCT-15 colon
# MDA-MB-231 breast = test system: MDA-MB-231 breast
# MDA-MB-435 = test system: MDA-MB-435
# SK-OV-3 ovarian = test system: SK-OV-3 ovarian
# LOX IMVI melanoma = test system: LOX IMVI melanoma
# 786-0 renal = test system: 786-0 renal
# M14 melanoma = test system: M14 melanoma
# SR leukemia = test system: SR leukemia
# HOP-92 NSCLC = test system: HOP-92 NSCLC
# DU-145 prostate = test system: DU-145 prostate
# SW-620 colon = test system: SW-620 colon
# SK-MEL-2 melanoma = test system: SK-MEL-2 melanoma
# U251 CNS = test system: U251 CNS
# A549 NSCLC = test system: A549 NSCLC
# SNB-19 CNS = test system: SNB-19 CNS
# UO-31 renal = test system: UO-31 renal
# NCI/ADR-RES ovarian = test system: NCI/ADR-RES ovarian
# RXF 393 renal = test system: RXF 393 renal
# SNB-75 CNS = test system: SNB-75 CNS
# NCI-H23 lung = test system: NCI-H23 lung
# SF-268 CNS = test system: SF-268 CNS
# HCT-116 colon = test system: HCT-116 colon
# EKVX NSCLC = test system: EKVX NSCLC
# HT29 colon = test system: HT29 colon
# HOP-62 NSCLC = test system: HOP-62 NSCLC
# CCRF-CEM leukemia = test system: CCRF-CEM leukemia
# OVCAR-5 ovarian = test system: OVCAR-5 ovarian
# SF-539 CNS = test system: SF-539 CNS
# HCC-2998 colon = test system: HCC-2998 colon
# MCF7 breast = test system: MCF7 breast
# HS 578T breast = test system: HS 578T breast
# NCI-H226 lung = test system: NCI-H226 lung
compound,measurement,setting,value
COc1ccc2cc(C(=O)/C=C/c3ccco3)ccc2c1,GI50,CAKI-1 renal,38.7 µM
same,TGI,CAKI-1 renal,> 100 µM
same,GI50,UACC-257 melanoma,26.1 µM
same,TGI,UACC-257 melanoma,59.6 µM
same,GI50,PC-3 prostate,47.4 µM
same,TGI,PC-3 prostate,> 100 µM
same,GI50,COLO 205 colon,51.2 µM
same,TGI,COLO 205 colon,> 100 µM
same,GI50,OVCAR-4 ovarian,64.3 µM
same,TGI,OVCAR-4 ovarian,> 100 µM
same,GI50,SN12C renal,31.3 µM
same,TGI,SN12C renal,> 100 µM
same,GI50,IGROV1 ovarian,30.3 µM
same,TGI,IGROV1 ovarian,> 100 µM
same,GI50,SK-MEL-5 melanoma,12.2 µM
same,TGI,SK-MEL-5 melanoma,31.1 µM
same,GI50,MALME-3M melanoma,31 µM
same,TGI,MALME-3M melanoma,> 100 µM
same,GI50,OVCAR-3 ovarian,44 µM
same,TGI,OVCAR-3 ovarian,> 100 µM
same,GI50,OVCAR-8 ovarian,34.2 µM
same,TGI,OVCAR-8 ovarian,> 100 µM
same,GI50,NCI-H460 lung,22.7 µM
same,TGI,NCI-H460 lung,52.6 µM
same,GI50,BT-549 breast,20.4 µM
same,TGI,BT-549 breast,43.8 µM
same,GI50,NCI-H522 lung,19.7 µM
same,TGI,NCI-H522 lung,58.5 µM
same,GI50,UACC-62 melanoma,26.6 µM
same,TGI,UACC-62 melanoma,> 100 µM
same,GI50,TK-10 renal,25.6 µM
same,TGI,TK-10 renal,70 µM
same,GI50,KM12 colon,34.5 µM
same,TGI,KM12 colon,> 100 µM
same,GI50,SF-295 CNS,38.8 µM
same,TGI,SF-295 CNS,> 100 µM
same,GI50,RPMI-8226 leukemia,32 µM
same,TGI,RPMI-8226 leukemia,99.3 µM
same,GI50,SK-MEL-28 melanoma,> 100 µM
same,TGI,SK-MEL-28 melanoma,> 100 µM
same,GI50,ACHN renal,29.4 µM
same,TGI,ACHN renal,79.1 µM
same,GI50,MOLT-4 leukemia,41.7 µM
same,TGI,MOLT-4 leukemia,> 100 µM
same,GI50,HL-60(TB) leukemia,24.6 µM
same,TGI,HL-60(TB) leukemia,83.3 µM
same,GI50,T-47D breast,> 100 µM
same,TGI,T-47D breast,> 100 µM
same,GI50,K-562 leukemia,38 µM
same,TGI,K-562 leukemia,> 100 µM
same,GI50,HCT-15 colon,25.6 µM
same,TGI,HCT-15 colon,> 100 µM
same,GI50,MDA-MB-231 breast,29.2 µM
same,TGI,MDA-MB-231 breast,> 100 µM
same,GI50,MDA-MB-435,34.2 µM
same,TGI,MDA-MB-435,> 100 µM
same,GI50,SK-OV-3 ovarian,53.1 µM
same,TGI,SK-OV-3 ovarian,> 100 µM
same,GI50,LOX IMVI melanoma,54 µM
same,TGI,LOX IMVI melanoma,> 100 µM
same,GI50,786-0 renal,10.4 µM
same,TGI,786-0 renal,> 100 µM
same,GI50,M14 melanoma,0.19 µM
same,TGI,M14 melanoma,12.6 µM
same,GI50,SR leukemia,16.2 µM
same,TGI,SR leukemia,68.2 µM
same,GI50,HOP-92 NSCLC,62.6 µM
same,TGI,HOP-92 NSCLC,> 100 µM
same,GI50,DU-145 prostate,23.9 µM
same,TGI,DU-145 prostate,88.6 µM
same,GI50,SW-620 colon,35 µM
same,TGI,SW-620 colon,> 100 µM
same,GI50,SK-MEL-2 melanoma,21.6 µM
same,TGI,SK-MEL-2 melanoma,59.1 µM
same,GI50,U251 CNS,28.5 µM
same,TGI,U251 CNS,97.4 µM
same,GI50,A549 NSCLC,31.8 µM
same,TGI,A549 NSCLC,> 100 µM
same,GI50,SNB-19 CNS,> 100 µM
same,TGI,SNB-19 CNS,> 100 µM
same,GI50,UO-31 renal,37.5 µM
same,TGI,UO-31 renal,> 100 µM
same,GI50,NCI/ADR-RES ovarian,23.8 µM
same,TGI,NCI/ADR-RES ovarian,63.8 µM
same,GI50,RXF 393 renal,15.9 µM
same,TGI,RXF 393 renal,38.7 µM
same,GI50,SNB-75 CNS,> 100 µM
same,TGI,SNB-75 CNS,> 100 µM
same,GI50,NCI-H23 lung,19.5 µM
same,TGI,NCI-H23 lung,42.7 µM
same,GI50,SF-268 CNS,20 µM
same,TGI,SF-268 CNS,45.5 µM
same,GI50,HCT-116 colon,1.29 µM
same,TGI,HCT-116 colon,35.6 µM
same,GI50,EKVX NSCLC,6.33 µM
same,TGI,EKVX NSCLC,26.2 µM
same,GI50,HT29 colon,42.5 µM
same,TGI,HT29 colon,> 100 µM
C=CCCC(O)c1ccc(CCCCCCCCCCC)o1 (stereo not drawn),GI50,CAKI-1 renal,16 µM
same,TGI,CAKI-1 renal,31.5 µM
same,GI50,UACC-257 melanoma,18.6 µM
same,TGI,UACC-257 melanoma,33.9 µM
same,GI50,HOP-62 NSCLC,17.3 µM
same,TGI,HOP-62 NSCLC,32.2 µM
same,GI50,PC-3 prostate,18.8 µM
same,TGI,PC-3 prostate,36.6 µM
same,GI50,COLO 205 colon,17.9 µM
same,TGI,COLO 205 colon,35.3 µM
same,GI50,CCRF-CEM leukemia,19.3 µM
same,TGI,CCRF-CEM leukemia,40 µM
same,GI50,SN12C renal,15.6 µM
same,TGI,SN12C renal,29 µM
same,GI50,IGROV1 ovarian,16.5 µM
same,TGI,IGROV1 ovarian,32 µM
same,GI50,SK-MEL-5 melanoma,17 µM
same,TGI,SK-MEL-5 melanoma,31.5 µM
same,GI50,MALME-3M melanoma,15.6 µM
same,TGI,MALME-3M melanoma,33.8 µM
same,GI50,OVCAR-3 ovarian,16.1 µM
same,TGI,OVCAR-3 ovarian,35.9 µM
same,GI50,OVCAR-8 ovarian,18.3 µM
same,TGI,OVCAR-8 ovarian,35.6 µM
same,GI50,NCI-H460 lung,28.9 µM
same,TGI,NCI-H460 lung,> 100 µM
same,GI50,BT-549 breast,16.7 µM
same,TGI,BT-549 breast,30.7 µM
same,GI50,NCI-H522 lung,17 µM
same,TGI,NCI-H522 lung,32.8 µM
same,GI50,UACC-62 melanoma,12.3 µM
same,TGI,UACC-62 melanoma,25 µM
same,GI50,OVCAR-5 ovarian,18.3 µM
same,TGI,OVCAR-5 ovarian,35.9 µM
same,GI50,TK-10 renal,15.8 µM
same,TGI,TK-10 renal,31.9 µM
same,GI50,KM12 colon,20.6 µM
same,TGI,KM12 colon,51 µM
same,GI50,SF-295 CNS,14.2 µM
same,TGI,SF-295 CNS,30.4 µM
same,GI50,RPMI-8226 leukemia,14 µM
same,TGI,RPMI-8226 leukemia,38.6 µM
same,GI50,SK-MEL-28 melanoma,14.9 µM
same,TGI,SK-MEL-28 melanoma,29.6 µM
same,GI50,ACHN renal,15.6 µM
same,TGI,ACHN renal,28.9 µM
same,GI50,MOLT-4 leukemia,29.9 µM
same,TGI,MOLT-4 leukemia,> 100 µM
same,GI50,HL-60(TB) leukemia,39.2 µM
same,TGI,HL-60(TB) leukemia,> 100 µM
same,GI50,T-47D breast,13.8 µM
same,TGI,T-47D breast,30.5 µM
same,GI50,SF-539 CNS,18.9 µM
same,TGI,SF-539 CNS,34.3 µM
same,GI50,HCC-2998 colon,18.4 µM
same,TGI,HCC-2998 colon,36.5 µM
same,GI50,MCF7 breast,20.3 µM
same,TGI,MCF7 breast,50.9 µM
same,GI50,K-562 leukemia,38.6 µM
same,TGI,K-562 leukemia,> 100 µM
same,GI50,HCT-15 colon,17 µM
same,TGI,HCT-15 colon,31.5 µM
same,GI50,MDA-MB-231 breast,12.6 µM
same,TGI,MDA-MB-231 breast,26.2 µM
same,GI50,MDA-MB-435,16.7 µM
same,TGI,MDA-MB-435,35.3 µM
same,GI50,SK-OV-3 ovarian,16.9 µM
same,TGI,SK-OV-3 ovarian,33.8 µM
same,GI50,HS 578T breast,12.6 µM
same,TGI,HS 578T breast,30.2 µM
same,GI50,LOX IMVI melanoma,31.8 µM
same,TGI,LOX IMVI melanoma,47.2 µM
same,GI50,786-0 renal,16.3 µM
same,TGI,786-0 renal,30.5 µM
same,GI50,M14 melanoma,17.2 µM
same,TGI,M14 melanoma,32.4 µM
same,GI50,HOP-92 NSCLC,18.2 µM
same,TGI,HOP-92 NSCLC,35.9 µM
same,GI50,DU-145 prostate,16.4 µM
same,TGI,DU-145 prostate,31.1 µM
same,GI50,SW-620 colon,17 µM
same,TGI,SW-620 colon,32.2 µM
same,GI50,SK-MEL-2 melanoma,17.6 µM
same,TGI,SK-MEL-2 melanoma,37.1 µM
same,GI50,U251 CNS,17.5 µM
same,TGI,U251 CNS,31.5 µM
same,GI50,A549 NSCLC,18.6 µM
same,TGI,A549 NSCLC,35.1 µM
same,GI50,SNB-19 CNS,18.8 µM
same,TGI,SNB-19 CNS,35 µM
same,GI50,UO-31 renal,20.9 µM
same,TGI,UO-31 renal,36.1 µM
same,GI50,NCI/ADR-RES ovarian,18.9 µM
same,TGI,NCI/ADR-RES ovarian,35.5 µM
same,GI50,RXF 393 renal,18.5 µM
same,TGI,RXF 393 renal,36.5 µM
same,GI50,SNB-75 CNS,14.2 µM
same,TGI,SNB-75 CNS,28.6 µM
same,GI50,NCI-H226 lung,17.7 µM
same,TGI,NCI-H226 lung,33.1 µM
same,GI50,NCI-H23 lung,19.3 µM
same,TGI,NCI-H23 lung,40.6 µM
same,GI50,SF-268 CNS,19.3 µM
same,TGI,SF-268 CNS,43.9 µM
same,GI50,HCT-116 colon,18 µM
same,TGI,HCT-116 colon,32.2 µM
same,GI50,EKVX NSCLC,18.2 µM
same,TGI,EKVX NSCLC,32.9 µM
same,GI50,HT29 colon,16.1 µM
same,TGI,HT29 colon,33.5 µM
